Test results taken from patent publication US20140271756A1, “Controlled Release of Microbiocides” (priority 2013, published 2014).

Experiment: benzyltriazole release flux rate test of membrane in 20 gallons tap water
Type: physicochemical
Conditions: 80° F., 100 hour period
Protocol: The microbiocide component release flux rate through the membrane is defined as milligrams of microbiocide component released per hour through one square millimeter of membrane or mg./hr./mm^2. Because the release flux rate varies over a wide range and is at least sometimes relatively slow, a test using benzyltriazole has been developed to quantify certain release flux rates that may be useful in accordance with the present invention. This test is conducted as follows.
A tank with twenty (20) gallons of tap water is provided, together with a recirculating heater to give mixing and temperature control. […] Water samples are collected at regular intervals over a 100 hour period and are measured for benzyltriazole content. From these measurements, the benzyltriazole release flux rate of the membrane is determined. To illustrate, suppose 300 mg of benzyltriazole is released through 351 mm^2 of membrane area (exposed through an opening in the outermost wall of the container) in 100 hours. The benzyltriazole release flux rate

benzyltriazole release flux rate (membrane 27 of container 10, cellulose nitrate, average pore size about 20 to about 25 microns): about 0.049 mg/hr/min^2
benzyltriazole release flux rate (membrane layers 127 of container 110, cellulose nitrate, pore size about 8 microns): about 0.025 mg/hr./mm^2
Substance: benzyltriazole
